Measured values from paper PMC10227015, “From a drug repositioning to a structure-based drug design approach to tackle acute lymphoblastic leukemia” (Nature Communications, 2023).
Read-outs that look alike come from different tables or passages of the source.

Experiments:
CCRF-CEM cell line [1] = test: CCRF-CEM proliferation, compound alone (nonspecific toxicity); format: cell-based, human; conditions: compound 10 µM alone, 72 h
Protocol: (§1) The dCK cellular assay was set up to assess the ability to inhibit dCK activity in a cellular model. The model was developed with a T-cell acute lymphoblastic leukemia cell line (CCRF-CEM), because of its high dependence on the SP, thus on dCK activity. Cellular assays were performed to assess the inhibition of cell proliferation under two conditions: (i) in the presence of the compound alone to determine the nonspecific effect on cells, independent of dCK (nonspecific toxicity) and (ii) in the presence of an inhibitor of the DNP to determine the ability of compounds to inhibit dCK and decrease tumor proliferation (activity on dCK). The inhibitor of the DNP chosen for the experiments was thymidine (dT), a physiological inhibitor of ribonucleotide reductase which arrests cell proliferation in phase S. The dTTP produced via thymidine kinase from dT acts as a RNR inhibitor by an allosteric regulation of the R1 subunit. The addition of the nucleoside deoxycytidine (dC) in the medium allows the rescue of cell proliferation by passing only through the salvage pathway, mediated by dCK. dC needs to be added exogenously to mimic physiological concentrations because it is not present in the cell culture medium, on the contrary to mouse model, in which it is naturally present in the serum. Therefore, cell proliferation under these conditions (+dT +dC) is dCK dependent and it is possible to determine the IC50 of dCK inhibitors on the inhibition of cell proliferation. Results are expressed as % cell proliferation relative to the control with DMSO.
(§2) The amount of reduced dye formed by metabolically active cells was quantified by its fluorescence measured at 560 nm (excitation) and 590 nm (emission) in a microplate reader (CLARIOstar, BMG Labtech). A blank well without cells was used as a background control. Each experiment was performed at least three times (with technical triplicates) and data are presented as the mean ± SD.

dCK-C3S-S74E [2] = target: T1, dCK-C3S-S74E (Homo sapiens, UniProt P27707, form not given/S74E); test: Enzymatic assay (PK/LDH coupled), dC phosphorylation by dCK in the presence of UTP; format: biochemical; conditions: presence of UTP
Protocol: (§3) For enzymatic assays, cells were re-suspended in 20 mM TRIS, pH 8 500 mM NaCl, 0.1% BRIJ-35 and 5% glycerol buffer and one EDTA free anti-protease tablet was added (Roche). After sonication and centrifugation (30,000 × g), the supernatant was loaded on a 5 ml HisTrap FF column (GE healthcare) pre-equilibrated with 20 mM TRIS, pH 8, 500 mM NaCl, 0.01% BRIJ-35 and 5% glycerol buffer. The protein was then eluted by the same buffer containing 250 mM imidazole after a wash containing 25 mM imidazole. The eluted fraction was applied on a HiPrep 26/10 desalting column (GE healthcare) pre-equilibrated with 20 mM TRIS, pH 8, 500 mM NaCl, 5% glycerol and 0.01% BRIJ-35 buffer. Finally, protein in a 20% glycerol buffer was flash frozen in liquid nitrogen and stored at −80 °C.
(§4) Kinetic analyses were performed using a spectrophotometric continuous enzymatic-coupled assay using pyruvate kinase (PK) and lactate dehydrogenase (LDH). […] UTP is the physiological dCK-phosphate donor[46] and it was used to determine activation versus inhibition behavior. ATP was used to calculate IC50 values, as it allows the analysis of a dose response curve. The PK/LDH coupled assay is based on the conversion of phosphoenolpyruvate (PEP) and UDP/ADP to pyruvate and UTP/ATP by PK and the subsequent conversion of pyruvate to lactate by LDH. The latter step requires NADH, which is oxidized to NAD^+. NADH is fluorescent (excitation at 337 nm and emission at 460 nm), but not NAD^+. Thus, the measurement of fluorescent decrease at 460 nm is a measure of kinase activity. dCK experiments were performed in a buffer containing 50 mM HEPES, pH 7.5, 5 mM MgCl2, 1 mM DTT, and 100 mM KCl. Buffer was supplemented with PK (0.01 U/µl), LDH (0.02 U/µl), PEP (1 mM), NADH (300 µM) and compounds at varying concentrations. For UTP assays, protein concentration was 2 μM, substrate 200 µM (dC), and UTP 1 mM. For ATP assays, protein concentration was 100 nM (and 50 nM when indicated), substrate 100 µM (dC), and ATP 1 mM. All measurements were performed on a microplate reader Pherastar FS (BMG Labtech). All assays were performed in triplicate and each experiment was performed at least twice. The data are presented as mean ± SD. The results were plotted as kinetics and the velocity was determined for each condition as the slope of the linear range of the curve. For each compound concentration, the velocity of the reaction (according to V = d[P]/dt) was normalized with respect to the drug free control and velocity ratios were compared. IC50 values corresponding to enzymatic inhibition in ATP were calculated by nonlinear regression curves using GraphPad Prism software 9.4.0.

dCK-C3S-S74E [3] = target: T1, dCK-C3S-S74E; test: Enzymatic assay (PK/LDH coupled), dC phosphorylation by dCK in the presence of ATP; format: biochemical
Protocol: as §3
(§5) Kinetic analyses were performed using a spectrophotometric continuous enzymatic-coupled assay using pyruvate kinase (PK) and lactate dehydrogenase (LDH). Analysis of the effect of compounds on dCK-C3S-S74E activity was performed using dC as substrate and UTP/ATP as phosphate donors. UTP is the physiological dCK-phosphate donor[46] and it was used to determine activation versus inhibition behavior. ATP was used to calculate IC50 values, as it allows the analysis of a dose response curve. The PK/LDH coupled assay is based on the conversion of phosphoenolpyruvate (PEP) and UDP/ADP to pyruvate and UTP/ATP by PK and the subsequent conversion of pyruvate to lactate by LDH. The latter step requires NADH, which is oxidized to NAD^+. NADH is fluorescent (excitation at 337 nm and emission at 460 nm), but not NAD^+. Thus, the measurement of fluorescent decrease at 460 nm is a measure of kinase activity. dCK experiments were performed in a buffer containing 50 mM HEPES, pH 7.5, 5 mM MgCl2, 1 mM DTT, and 100 mM KCl. Buffer was supplemented with PK (0.01 U/µl), LDH (0.02 U/µl), PEP (1 mM), NADH (300 µM) and compounds at varying concentrations. For UTP assays, protein concentration was 2 μM, substrate 200 µM (dC), and UTP 1 mM. For ATP assays, protein concentration was 100 nM (and 50 nM when indicated), substrate 100 µM (dC), and ATP 1 mM. All measurements were performed on a microplate reader Pherastar FS (BMG Labtech). All assays were performed in triplicate and each experiment was performed at least twice. The data are presented as mean ± SD. The results were plotted as kinetics and the velocity was determined for each condition as the slope of the linear range of the curve. For each compound concentration, the velocity of the reaction (according to V = d[P]/dt) was normalized with respect to the drug free control and velocity ratios were compared. IC50 values corresponding to enzymatic inhibition in ATP were calculated by nonlinear regression curves using GraphPad Prism software 9.4.0.

CCRF-CEM cell line [4] = test: dCK cellular assay: CCRF-CEM proliferation in the presence of dT and dC; format: cell-based, human; conditions: for IC50: Homo sapiens
Protocol: as §1, §2

dCK-C3S-S74E [5] = test: Enzymatic assay (PK/LDH coupled), dC phosphorylation by dCK in the presence of UTP; format: biochemical, human; conditions: presence of UTP
Protocol: as §3, §4

dCK-C3S-S74E [6] = test: Enzymatic assay (PK/LDH coupled), dC phosphorylation by dCK in the presence of ATP; format: biochemical, human; conditions: presence of ATP, read-out: ENZYMATIC ASSAY IC50
Protocol: as §3, §5

dCK-C3S-S74E [7] = test: Thermal shift assay (TSA); conditions: for THERMAL SHIFT ASSAY +Tm (°): mean ± SD; for ΔTm (º) (TSA): Figure 2a, mean
dCK-C3S-S74E [8] = target: T1, dCK-C3S-S74E; test: Thermal shift assay (TSA)
[9] = read-out: dCK CELLULAR ASSAY IC50 (nM), CCRF-CEM, 200 µM dT and 1 µM dC, read-out: dCK […] ASSAY IC50
[10] = Figure 2a, CCRF-CEM cell line, mean, read-out: IC50 (nM) (Cell Prolif)

T1 sequence (P27707 whole entry S74E, form open): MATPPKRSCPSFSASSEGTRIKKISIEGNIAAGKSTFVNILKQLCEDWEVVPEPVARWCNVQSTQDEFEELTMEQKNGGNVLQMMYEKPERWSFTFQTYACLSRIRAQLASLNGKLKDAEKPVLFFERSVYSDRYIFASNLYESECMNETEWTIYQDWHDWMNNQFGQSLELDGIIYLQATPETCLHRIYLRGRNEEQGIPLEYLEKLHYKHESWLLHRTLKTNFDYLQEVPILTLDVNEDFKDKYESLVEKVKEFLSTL
T1 sequence (P27707 whole entry S74E, form open): as above

| SMILES | ENZYMATIC ASSAY (Activation/Inhibition) (dCK-C3S-S74E [5]) | THERMAL SHIFT ASSAY +Tm (°) (dCK-C3S-S74E [7]) | IC50 (dCK-C3S-S74E [6]; [dCK] = 50 nM (footnote A)) | IC50 (CCRF-CEM cell line [4]; [10]) | ΔTm (º) (TSA) (dCK-C3S-S74E [7]) | other results |
| --- | --- | --- | --- | --- | --- | --- |
| Cc1ccc(NC(=O)c2ccc(CN3CCN(C)CC3)cc2)cc1Nc1nc(-c2cccnc2)cs1 [Masitinib, masitinib, reference compound] |  |  |  |  |  | Cell proliferation of the CCRF-CEM cell line Mean (% prolif) (CCRF-CEM cell line [1]): 87.5% |
| CCCN(c1nc(-c2nccc(N)n2)cs1)c1cc(-c2ccc(OCC(=O)N3CCN(C)CC3)cc2)ccc1C [OR0597] |  |  |  |  |  | ENZYMATIC ASSAY (Activation/Inhibition) (dCK-C3S-S74E [2]): I; IC50 (dCK-C3S-S74E [3]; read-out: ENZYMATIC ASSAY IC50, presence of ATP, [dCK] = 100 nM): 0.349 ± 0.089 µM; IC50 (CCRF-CEM cell line [4]; [9]): 220 ± 127 nM |
| CCCN(c1nc(-c2nc(N)cc(N)n2)cs1)c1cc(-c2ccc(CCCN3CCN(C)CC3)cc2)ccc1C [OR0601] | I | 20.8 ± 0.7 ° |  |  |  | IC50 (dCK-C3S-S74E [6]; [dCK] = 100 nM): 0.137 ± 0.003 µM; IC50 (CCRF-CEM cell line [4]; [9]): 420 ± 83 nM |
| Cc1ccc(-c2ccc(CCN3CCN(C)CC3)cc2)cc1N(CC(C)C)c1nc(-c2nc(N)cc(N)n2)cs1 [OR0603] | I | 21.3 ± 0.8 ° | 0.149 ± 0.044 µM |  |  | IC50 (CCRF-CEM cell line [4]; [9]): 255 ± 70 nM |
| Cc1ccc(-c2ccc(OCCN3CCN(C)CC3)nc2)cc1N(CC(C)C)c1nc(-c2nc(N)cc(N)n2)cs1 [OR0608] | I | 21.0 ± 0.5 ° | 0.106 ± 0.023 µM | 40 nM | 21.03 º |  |
| Cc1ccc(-c2ccc(CCN3CCN(C)CC3)cc2)cc1N(CCCN)c1nc(-c2nc(N)cc(N)n2)cs1 [OR0611] | A/I | 14.7 ± 0.5 ° | 0.498 ± 0.119 µM | 11800 nM | 14.67 º |  |
| CCCN(c1nc(-c2nc(N)cc(N)n2)cs1)c1cc(-c2ccc(C(=O)N3CCN(C)CC3)nc2)ccc1C [OR0612] | I | 16.6 ± 0.8 ° | 0.195 ± 0.016 µM | 1000 nM | 16.58 º |  |
| Cc1ccc(-c2ccc(S(=O)(=O)N3CCN(C)CC3)cc2)cc1Nc1nc(-c2nc(N)cc(N)n2)cs1 [OR0614] | A/I | 18.1 ± 0.8 ° | 0.233 ± 0.083 µM | 10000 nM | 18.1 º |  |
| CCCN(c1nc(-c2nc(N)cc(N)n2)cs1)c1cc(-c2ccc(S(N)(=O)=O)cc2)ccc1C [OR0615] | I | 17.5 ± 0.7 ° | 0.088 ± 0.068 µM | 411 nM | 17.5 º |  |
| CCCN(c1nc(-c2nc(N)cc(N)n2)cs1)c1cc(-c2ccc(S(=O)(=O)N3CCOCC3)cc2)ccc1C [OR0617] | I | 18.3 ± 1.1 ° | 0.181 ± 0.015 µM | 78 nM | 18.29 º |  |
| CCCN(c1nc(-c2nc(N)cc(N)n2)cs1)c1cc(-c2ccc(S(=O)(=O)N(C)C)cc2)ccc1C [OR0618] | I | 18.8 ± 0.6 ° | 0.139 ± 0.012 µM | 80 nM | 18.79 º |  |
| CCCN(c1nc(-c2nc(N)cc(N)n2)cs1)c1cc(-c2ccc(S(=O)(=O)N3CCN(CC(=O)[O-])CC3)cc2)ccc1C.[Na+] [OR0649] |  |  |  |  |  | IC50 (CCRF-CEM cell line [4]; CCRF-CEM, read-out: IC50 (nM) (Cell Prolif)): 13400 nM; ΔTm (º) (TSA) (dCK-C3S-S74E [8]; Figure 2a, mean): 17.61 º |
| CCCN(c1nc(-c2cccnc2)cs1)c1cc(-c2ccc(S(=O)(=O)N3CCN(C)CC3)cc2)ccc1C [OR0659] |  |  |  |  |  | IC50 (dCK-C3S-S74E [3]; ATP, read-out: enzymatic inhibition IC50): > 100 µM; inhibition of cell proliferation in combination with dT (CCRF-CEM cell line [4]; CCRF-CEM, presence of dT + dC): unable to inhibit cellular proliferation; ΔTm, dCK thermal stabilization (TSA) (dCK-C3S-S74E [8]; 5 μM protein, 50 μM compound): 6.3 °C |
